According to ChEMBL document CHEMBL3784996, “Copper-catalyzed three-component synthesis of aminonaphthoquinone-sulfonylamidine conjugates and in vitro evaluation of their antiproliferative activity” (Bioorg Med Chem Lett, 2016):

Tests used:
A549 = test: Cytotoxicity against human A549 cells after 48 hrs by MTT assay; type: functional, cell-based; conditions: A549, 48 h
HeLa = test: Cytotoxicity against human HeLa cells after 48 hrs by MTT assay; type: functional, cell-based
HEK293 = test: Cytotoxicity against HEK293 cells after 48 hrs by MTT assay; type: cell-based; conditions: Homo sapiens, HEK293, 48 h
MCF7 [1] = test: Cytotoxicity against human MCF7 cells after 48 hrs by MTT assay; type: functional, cell-based; conditions: MCF7, 48 h
[2] = Cytotoxicity against human DU145 cells after 48 hrs by MTT assay; type: functional, cell-based; conditions: DU-145, 48 h
MCF7 [3] = test: Induction of cell cycle arrest in human MCF7 cells assessed as accumulation at S phase at 2.5 uM after 48 hrs by propidium iodide staining based flow cytometric analysis (reference value: 5.04 %); type: functional
MCF7 [4] = test: Induction of cell cycle arrest in human MCF7 cells assessed as accumulation at S phase at 5 uM after 48 hrs by propidium iodide staining based flow cytometric analysis (reference value: 5.04 %); type: functional
MCF7 [5] = test: Induction of cell cycle arrest in human MCF7 cells assessed as accumulation at G2/M phase at 2.5 uM after 48 hrs by propidium iodide staining based flow cytometric analysis (reference value: 28.45 %); type: functional
MCF7 [6] = test: Induction of cell cycle arrest in human MCF7 cells assessed as accumulation at G0/G1 phase at 2.5 uM after 48 hrs by propidium iodide staining based flow cytometric analysis (reference value: 62.95 %); type: functional
MCF7 [7] = test: Induction of cell cycle arrest in human MCF7 cells assessed as accumulation at G2/M phase at 5 uM after 48 hrs by propidium iodide staining based flow cytometric analysis (reference value: 28.45 %); type: functional
MCF7 [8] = test: Induction of cell cycle arrest in human MCF7 cells assessed as accumulation at sub G1 phase at 5 uM after 48 hrs by propidium iodide staining based flow cytometric analysis (reference value: 2.58 %); type: functional
MCF7 [9] = test: Induction of cell cycle arrest in human MCF7 cells assessed as accumulation at G0/G1 phase at 5 uM after 48 hrs by propidium iodide staining based flow cytometric analysis (reference value: 62.95 %); type: functional
MCF7 [10] = test: Induction of cell cycle arrest in human MCF7 cells assessed as accumulation at sub G1 phase at 2.5 uM after 48 hrs by propidium iodide staining based flow cytometric analysis (reference value: 2.58 %); type: functional

Row | SMILES | IC50 (A549) | IC50 (HeLa) | IC50 (HEK293) | IC50 (MCF7 [1]) | IC50 [2] | Activity (MCF7 [3]) | Activity (MCF7 [4]) | Activity (MCF7 [5]) | Activity (MCF7 [6]) | Activity (MCF7 [7]) | Activity (MCF7 [8]) | Activity (MCF7 [9]) | Activity (MCF7 [10])
1 | C#CCNC1=CC(=O)c2ccccc2C1=O | 47.3 µM | 30.9 µM | 77.6 µM | 24.1 µM | 39.8 µM |  |  |  |  |  |  |  | 
2 | Cc1ccc(S(=O)(=O)/N=C(/CCNC2=CC(=O)c3ccccc3C2=O)Nc2cc(F)c(F)c(F)c2)cc1 | 10.2 µM | 8.58 µM | 82.6 µM | 6.61 µM | 12.6 µM |  |  |  |  |  |  |  | 
3 | Cc1ccc(S(=O)(=O)/N=C(/CCNC2=CC(=O)c3ccccc3C2=O)Nc2ccc(F)c(F)c2)cc1 | 16.7 µM | 8.79 µM | 55.2 µM | 9.42 µM | 12.9 µM |  |  |  |  |  |  |  | 
4 | Cc1ccc(S(=O)(=O)/N=C(/CCNC2=CC(=O)c3ccccc3C2=O)Nc2ccccc2[N+](=O)[O-])cc1 | 5.01 µM | 3.31 µM | 69.6 µM | 3.09 µM | 7.59 µM | 3.11% | 3.09% | 27.47% | 63.91% | 23.6% | 2.6% | 68.18% | 2.5%
5 | Cc1ccc(S(=O)(=O)/N=C(/CCNC2=CC(=O)c3ccccc3C2=O)Nc2ccccc2I)cc1 | 24.7 µM | 19.1 µM | 49.4 µM | 15.5 µM | 11.7 µM |  |  |  |  |  |  |  | 
6 | COc1ccc(N/C(CCNC2=CC(=O)C(C)=C(C)C2=O)=N\S(=O)(=O)c2ccc(C)cc2)cc1OC | 15.5 µM | 10.5 µM | 79.4 µM | 8.71 µM | 14 µM |  |  |  |  |  |  |  | 
7 | Cc1ccc(S(=O)(=O)/N=C(\N)CCNC2=CC(=O)c3ccccc3C2=O)cc1 | 26.6 µM | 24.6 µM | 63.1 µM | 18.6 µM | 30.9 µM |  |  |  |  |  |  |  | 
8 | Cc1ccc(S(=O)(=O)/N=C(/CCNC2=CC(=O)c3ccccc3C2=O)Nc2ccc(F)cc2)cc1 | 9.33 µM | 5.89 µM | 55.1 µM | 4.26 µM | 12.2 µM |  |  |  |  |  |  |  | 
9 | COc1ccc(N/C(CCNC2=CC(=O)c3ccccc3C2=O)=N\S(=O)(=O)c2ccc(C)cc2)cc1 | 25.5 µM | 7.59 µM | 35.1 µM | 6.03 µM | 12 µM |  |  |  |  |  |  |  | 
10 | Cc1ccc(S(=O)(=O)/N=C(/CCNC2=CC(=O)c3ccccc3C2=O)Nc2cccc(C(F)(F)F)c2)cc1 | 78.5 µM | 77.6 µM | 91.5 µM | 89.1 µM | 84.1 µM |  |  |  |  |  |  |  | 
11 | Cc1ccc(S(=O)(=O)/N=C(/CCNC2=CC(=O)c3ccccc3C2=O)Nc2ccc(Cl)cc2Cl)cc1 | 32.9 µM | 20.5 µM | 41.9 µM | 17 µM | 18.6 µM |  |  |  |  |  |  |  | 
12 | COc1ccc(N/C(CCNC2=C(Br)C(=O)c3ccccc3C2=O)=N\S(=O)(=O)c2ccc(C)cc2)cc1OC | 17.5 µM | 5.37 µM | 35.3 µM | 6.61 µM | 29.6 µM |  |  |  |  |  |  |  | 
13 | Cc1ccc(S(=O)(=O)/N=C(/CCNC2=CC(=O)c3ccccc3C2=O)NCCc2c[nH]c3ccccc23)cc1 | 17 µM | 9.33 µM | 42.5 µM | 7.76 µM | 28.4 µM |  |  |  |  |  |  |  | 
14 | Cc1ccc(S(=O)(=O)/N=C(/CCNC2=CC(=O)c3ccccc3C2=O)NC2CCCCC2)cc1 | 14.7 µM | 9.77 µM | 50.1 µM | 7.58 µM | 16.6 µM |  |  |  |  |  |  |  | 
15 | COc1ccc(N/C(CCNC2=CC(=O)c3ccccc3C2=O)=N\S(=O)(=O)c2ccc(C(C)(C)C)cc2)cc1OC | 16.2 µM | 11.5 µM | 62.3 µM | 8.71 µM | 14.5 µM |  |  |  |  |  |  |  | 
16 | COc1cc(N/C(CCNC2=CC(=O)c3ccccc3C2=O)=N\S(=O)(=O)c2ccc(C)cc2)cc(OC)c1OC | 7.94 µM | 3.39 µM | 75.8 µM | 3.05 µM | 9.33 µM | 4.14% | 5.19% | 27.51% | 64.17% | 5.23% | 3.01% | 84.55% | 1.86%
17 | Cc1ccc(S(=O)(=O)/N=C(/CCNC2=CC(=O)c3ccccc3C2=O)Nc2ccc(Cl)cc2)cc1 | 29.9 µM | 13.4 µM | 65.4 µM | 7.08 µM | 32.4 µM |  |  |  |  |  |  |  | 
18 | Cc1ccc(S(=O)(=O)/N=C(/CCNC2=CC(=O)c3ccccc3C2=O)NCc2ccccc2)cc1 | 7.41 µM | 3.98 µM | 80.2 µM | 3.63 µM | 9.12 µM |  |  |  |  |  |  |  | 
19 | Cc1ccc(S(=O)(=O)/N=C(/CCNC2=CC(=O)c3ccccc3C2=O)Nc2cccc(C)c2)cc1 | 18.7 µM | 9.06 µM | 56.2 µM | 8.12 µM | 10.2 µM |  |  |  |  |  |  |  | 
20 | COc1ccc(N/C(CCNC2=CC(=O)c3ccccc3C2=O)=N\S(=O)(=O)c2ccc(C)cc2)c(OC)c1 | 126 µM | 67.6 µM | 83 µM | 30.2 µM | 67.2 µM |  |  |  |  |  |  |  | 
21 | Cc1ccc(S(=O)(=O)/N=C(/CCNC2=CC(=O)c3ccccc3C2=O)NC(C)C)cc1 | 44.3 µM | 30.2 µM | 71.6 µM | 16.5 µM | 28.5 µM |  |  |  |  |  |  |  | 
22 | COc1ccc(N/C(CCNC2=CC(=O)c3ccccc3C2=O)=N\S(=O)(=O)c2ccc(C)cc2)cc1OC | 20.4 µM | 14.5 µM | 60.6 µM | 12.3 µM | 17.8 µM |  |  |  |  |  |  |  | 
23 | COc1cccc2c1C(=O)c1c(O)c3c(c(O)c1C2=O)C[C@@](O)(C(=O)CO)C[C@@H]3O[C@H]1C[C@H](N)[C@H](O)[C@H](C)O1 [DOXORUBICIN] | 2.34 µM | 1.59 µM |  |  | 1.08 µM |  |  |  |  |  |  |  | 
